Source: US6506766B1 (Abbott Laboratories, priority 1998, dated 2003)

Key:
[1] = target: T1, human glucocorticoid receptor-α [GRX] isoform (Homo sapiens, UniProt P04150); assay: Radioligand binding with human glucocorticoid receptor cytosol ([3H]-dexamethasone competition); details: GRX cytosol expressed in insect SF21 cells, [3H]-Dex ~0.9 nM, 4° C. overnight; Ki by Cheng-Prusoff, KL ~[…]; read-out: Ki (nM) GR
T1 construct: host or cells: insect SF21 cells (baculovirus)
T1 sequence (P04150 1-777): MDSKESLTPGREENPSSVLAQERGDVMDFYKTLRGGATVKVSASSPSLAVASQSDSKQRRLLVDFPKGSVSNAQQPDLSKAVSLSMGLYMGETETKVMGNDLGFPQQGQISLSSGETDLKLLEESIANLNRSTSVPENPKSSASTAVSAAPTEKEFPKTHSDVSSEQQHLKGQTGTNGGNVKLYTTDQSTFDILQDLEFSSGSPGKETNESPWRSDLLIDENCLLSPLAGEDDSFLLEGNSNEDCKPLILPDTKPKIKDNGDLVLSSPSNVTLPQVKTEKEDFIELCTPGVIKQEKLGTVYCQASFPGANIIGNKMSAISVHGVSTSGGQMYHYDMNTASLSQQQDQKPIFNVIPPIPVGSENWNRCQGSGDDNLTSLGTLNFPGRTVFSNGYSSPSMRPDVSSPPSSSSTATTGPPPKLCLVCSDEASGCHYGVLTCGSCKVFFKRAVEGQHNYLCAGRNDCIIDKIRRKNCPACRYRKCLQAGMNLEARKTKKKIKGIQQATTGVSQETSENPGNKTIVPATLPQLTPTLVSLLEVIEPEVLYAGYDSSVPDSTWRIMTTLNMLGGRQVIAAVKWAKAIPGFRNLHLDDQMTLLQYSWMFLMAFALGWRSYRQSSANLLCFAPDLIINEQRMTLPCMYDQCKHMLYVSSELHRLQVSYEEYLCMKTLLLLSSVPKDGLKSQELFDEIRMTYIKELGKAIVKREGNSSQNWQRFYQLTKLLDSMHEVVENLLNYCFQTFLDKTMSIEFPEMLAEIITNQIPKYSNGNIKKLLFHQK

[2] = target: T2, human progesterone receptor-A [PRA] isoform (Homo sapiens, UniProt P06401); assay: Radioligand binding with human progesterone receptor cytosol ([3H]-progesterone competition); details: PRA cytosol expressed in insect SF21 cells, [3H]Prog ~0.8 nM, 4° C. overnight; Ki by Cheng-Prusoff, KL ~4.5 nM; read-out: Ki (nM) PR
T2 construct: host or cells: insect SF21 cells (baculovirus)
T2 sequence (P06401 1-769 isoform P06401-2): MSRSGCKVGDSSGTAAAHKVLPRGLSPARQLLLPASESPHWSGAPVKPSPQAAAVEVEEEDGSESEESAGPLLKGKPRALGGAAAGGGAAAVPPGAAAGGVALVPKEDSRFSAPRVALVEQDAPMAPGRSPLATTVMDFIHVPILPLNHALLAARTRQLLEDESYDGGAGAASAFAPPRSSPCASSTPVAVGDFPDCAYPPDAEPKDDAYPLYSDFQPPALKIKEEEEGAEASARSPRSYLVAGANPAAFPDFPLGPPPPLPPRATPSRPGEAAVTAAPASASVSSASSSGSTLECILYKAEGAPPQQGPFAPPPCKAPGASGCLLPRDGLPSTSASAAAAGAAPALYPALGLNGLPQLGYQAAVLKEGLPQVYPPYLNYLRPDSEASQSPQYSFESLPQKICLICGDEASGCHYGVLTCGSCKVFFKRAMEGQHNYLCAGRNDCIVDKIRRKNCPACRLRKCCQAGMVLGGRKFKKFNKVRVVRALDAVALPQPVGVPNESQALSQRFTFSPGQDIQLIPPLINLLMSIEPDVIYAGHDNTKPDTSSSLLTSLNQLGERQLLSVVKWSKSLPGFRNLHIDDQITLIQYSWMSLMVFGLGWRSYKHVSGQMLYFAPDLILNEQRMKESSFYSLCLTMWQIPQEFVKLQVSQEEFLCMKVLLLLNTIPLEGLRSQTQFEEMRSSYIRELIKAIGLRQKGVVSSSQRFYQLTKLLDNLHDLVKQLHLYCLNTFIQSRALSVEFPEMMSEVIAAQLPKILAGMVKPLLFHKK

Row | Ki [1] [nM] | Ki [2] [nM] | Structure (SMILES)
1 | 3.8 | 266 | COc1c(O)ccc2c1-c1ccc3c(c1C(c1cccc(C(F)(F)F)c1)O2)C(C)=CC(C)(C)N3 (stereo not shown) [Example 256, 2,5-Dihydro-9-hydroxy-10-methoxy-2,2,4-trimethyl-5-(3-trifluoromethylphenyl)-1H-[1]benzopyrano[3,4-f]quinoline]
2 | 4.1 | 29.1 | CC1=CC(C)(C)Nc2ccc3c(c21)C(Cc1ccccc1)Oc1ccc(O)c(Cl)c1-3 (racemic) [Example 429, (+/−)2,5-Dihydro-9-hydroxy-10-chloro-2,2,4-trimethyl-5-benzyl-1H-[1]benzopyrano[3,4-f]quinoline]
3 | 9.3 | 1460 | C=CCC1Oc2cccc(C#N)c2-c2ccc3c(c21)C(C)=CC(C)(C)N3 (stereo not shown) [Example 327, 2,5-Dihydro-10-cyano-5-(3-propenyl)-2,2,4-trimethyl-1H-[1]benzopyrano[3,4-f]quinoline]
4 | 0.8 | 488 | COc1c(O)ccc2c1-c1ccc3c(c1C(c1cc(F)cc(F)c1)O2)C(C)=CC(C)(C)N3 (stereo not shown) [Example 249, 2,5-Dihydro-9-hydroxy-10-methoxy-2,2,4-trimethyl-5-(3,5-difluorophenyl)-1H-[1]benzopyrano[3,4-f]quinoline]
5 | 52.2 | 2170 | COc1c(O)ccc2c1-c1ccc3c(c1[C@@H]([C@@H]1C=C(C)CCC1)O2)C(C)=CC(C)(C)N3 [Example 240, (+)(5R,3′S)-9-Hydroxy-5-[1-methyl-3-cyclohexenyl]-10-methoxy-2,2,4-trimethyl-2,5-dihydro-1H-[1]benzopyrano[3,4-f]quinoline]
6 | 4 | 3470 | COc1c(O)ccc2c1-c1ccc3c(c1C(Cc1ccc(F)cc1)O2)C(C)=CC(C)(C)N3 (stereo not shown) [Example 445, 2,5-Dihydro-9-hydroxy-10-methoxy-2,2,4-trimethyl-5-(4-(fluorophenyl)methyl)-1H-[1]benzopyrano[3,4-f]quinoline]
7 | 56.9 | 286 | CC1=C[C@@H]([C@H]2Oc3ccc(O)c(Cl)c3-c3ccc4c(c32)C(C)=CC(C)(C)N4)CCC1 [Example 419, (+)(5R,3′S)2,5-Dihydro-9-hydroxy-10-chloro-2,2,4-trimethyl-5-(1-methylcyclohexen-3-yl)-1H-[1]benzopyrano[3,4-f]quinoline]
8 | 112 | 14100 | COc1c(O)ccc2c1-c1ccc3c(c1C(c1nccs1)O2)C(C)=CC(C)(C)N3 (stereo not shown) [Example 408, 2,5-Dihydro-9-hydroxy-10-methoxy-2,2,4-trimethyl-5-(1-thiazol-2-yl)-1H-[1]benzopyrano[3,4-f]quinoline]
9 | 10 | 1620 | COc1c(O)ccc2c1-c1ccc3c(c1C(c1cc(C(F)(F)F)cc(C(F)(F)F)c1)O2)C(C)=CC(C)(C)N3 (stereo not shown) [Example 257, 2,5-Dihydro-9-hydroxy-10-methoxy-2,2,4-trimethyl-5-(3-5-bistrifluoromethylphenyl)-1H-[1]benzopyrano[3,4-f]quinoline]

The next lines start with the molecule.

Row | Structure (SMILES) | Ki [1] [nM] | Ki [2] [nM]
10 | COc1cccc2c1-c1ccc3c(c1[C@H]([C@@H]1C=C(C)CCC1)O2)C(C)=CC(C)(C)N3 [Example 154] | 0.7 | ≥ 10000
11 | COc1cccc2c1-c1ccc3c(c1C(=Cc1ccc(Cl)cc1)O2)C(C)=CC(C)(C)N3 [Example 121, 5-[(4-chlorophenyl)methylene]-2,5-dihydro-10-methoxy-2,2,4-trimethyl-1H-[1]benzopyrano[3,4-f]quinoline] | 11.3 | 672
12 | C=CCC1Oc2cccc(C(=O)OC)c2-c2ccc3c(c21)C(C)=CC(C)(C)N3 (stereo not shown) [Example 4, Methyl 2,5-Dihydro-2,2,4-trimethyl-5-(2-propenyl)-1H-[1]benzopyrano[3,4-f]quinoline-10-carboxylate] | 7 | 2960
13 | COc1ccc2c(c1OC)-c1ccc3c(c1C(C1C=CCCC1)O2)C(C)=CC(C)(C)N3 (stereo not shown) [Example 131, 5-(2-Cyclohexen-1-yl)-2,5-dihydro-9,10-dimethoxy-2,2,4-trimethyl-1H-[1]benzopyrano[3,4-f]quinoline] | 7.71 | 996
14 | COc1cccc2c1-c1ccc3c(c1C(c1cccc(C4=NC(C)(C)CO4)c1)O2)C(C)=CC(C)(C)N3 (stereo not shown) [Example 106] | 62 | > 10000
15 | COc1cccc2c1-c1ccc3c(c1C([C@H]1C=C(CN4CCOCC4)CCC1)O2)C(C)=CC(C)(C)N3 (stereo in doubt) [Example 167, rel (5R, 3′R) 2,5-Dihydro-10-methoxy-5-(1-(N-morpholino)methyl-3-cyclohexenyl)-2,2,4-trimethyl-1H-[1]benzopyrano[3,4-f]quinoline] | 21 | ≥ 10000
16 | COc1cccc2c1-c1ccc3c(c1[C@H](C1(C)CC=CCC1)O2)C(C)=CC(C)(C)N3 (stereo in doubt) [Example 152, rel (5S,3′S) 2,5-Dihydro-10-methoxy-5-(1-methyl-3-cyclohexenyl)-2,2,4-trimethyl-1H[1]benzopyrano[3,4-f]quinoline] | 1.8 | ≥ 10000
17 | C=C(C)CCC1Oc2cccc(OC)c2-c2ccc3c(c21)C(C)=CC(C)(C)N3 (stereo not shown) [Example 132, 2,5-Dihydro-10-methoxy-5-(3-methyl-3-butenyl)-2,2,4-trimethyl-1H-[1]benzopyrano[3,4-f]quinoline] | 230 | 9890
18 | CCCc1ccc(C2Oc3cccc(OC)c3-c3ccc4c(c32)C(C)=CC(C)(C)N4)s1 (stereo not shown) [Example 41, 2,5-Dihydro-10-methoxy-2,2,4-trimethyl-5-(5-propyl-2-thienyl)-1H-[1]benzopyrano[3,4-f]quinoline] | 9.5 | 3300
19 | COc1c(Cl)ccc2c1-c1ccc3c(c1C(c1ccccc1)O2)C(C)=CC(C)(C)N3 (stereo not shown) [Example 229, 9-Chloro-10-methoxy-5-phenyl-2,2,4-trimethyl-2,5-dihydro-1H[1]benzopyrano[3,4-f]quinoline] | 34.7 | 1340
20 | COc1cccc2c1-c1ccc3c(c1C(c1cccc(OS(=O)(=O)c4ccc(C)cc4)c1)O2)C(C)=CC(C)(C)N3 (stereo not shown) [Example 93, 3-(2,5-Dihydro-10-methoxy-2,2,4-trimethyl-1H-[1]benzopyrano[3,4-f]quinolin-5-yl)phenol 4-Methylbenzenesulfonate (Ester)] | 148 | ≥ 10000
21 | C=CCC1Oc2ccc(Cl)c(OC(F)F)c2-c2ccc3c(c21)C(C)=CC(C)(C)N3 (stereo not shown) [Example 230, 5-(3-Propenyl)-9-chloro-10-difluoromethoxy-2,2,4-trimethyl-2,5-dihydro-1H-[1]benzopyrano[3,4-f]quinoline] | 2.4 | 50.3
22 | CCOC(=N)C1Oc2cccc(OC)c2-c2ccc3c(c21)C(C)=CC(C)(C)N3 (stereo not shown) [Example 61, 2,5-Dihydro-10-methoxy-2,2,4-trimethyl-1H-[1]benzopyrano[3,4-f]quinoline-5-carboximidic Acid Ethyl Ester] | 62 | 14400
23 | COc1cccc2c1-c1ccc3c(c1C(c1cccc(OCSC)c1)O2)C(C)=CC(C)(C)N3 (stereo not shown) [Example 14, 2,5-Dihydro-10-methoxy-2,2,4-trimethyl-5-[[3-(methylthio)methoxy]phenyl]-1H-[1]benzopyrano[3,4-f]quinoline] | 5.2 | ≥ 10000
